According to ChEMBL document CHEMBL1201862, “PubChem BioAssay data set” (2004):
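Dose response: 5 concentrations. Exposure: 48 h. Format: 96-well plates. Endpoint: linear interpolation; highest concentration if not reached. GI50 is the concentration that inhibits growth by half.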 The source made the active and inactive calls. Cut-off read from the data, not from the text of the source: active = GI50 up to about 1.1 µM and inactive = higher.

Tests used:
Assay in all cases: growth of human tumour cells (NCI), 48 h
DLD-1 = test system: DLD-1
SNB-78 = test system: SNB-78
XF498 = test system: XF498
M19-MEL = test system: M19-MEL
DMS-273 = test system: DMS-273
KM-20L2 = test system: KM-20L2
DMS-114 = test system: DMS-114
HOP-18 = test system: HOP-18
RXF 631 = test system: RXF 631

Measured: GI50

CCN(CC)CC(=O)NC1c2ccccc2Oc2c(C)cccc21 (stereo unspecified)
inactive: DLD-1 81.3 µM | SNB-78 > 100 µM | XF498 40 µM | M19-MEL > 100 µM | DMS-273 > 100 µM | KM-20L2 55.7 µM | DMS-114 > 100 µM

CC(=O)C1CCN(c2ccccc2)C1 (stereo unspecified)
inactive: DLD-1 > 100 µM | SNB-78 > 100 µM | XF498 > 100 µM | M19-MEL > 100 µM | DMS-273 > 100 µM | KM-20L2 > 10 µM | DMS-114 > 100 µM

N#CC12Cc3ccc4c(c3-c3cccc(c31)CCN2C(=O)c1ccccc1)OCO4 (stereo unspecified)
inactive: DLD-1 > 100 µM | SNB-78 > 100 µM | XF498 45 µM | M19-MEL > 100 µM | DMS-273 > 100 µM | HOP-18 > 100 µM | KM-20L2 > 100 µM | DMS-114 > 100 µM

CC(C)C(=O)N1C(=O)O[C@@H](c2ccccc2)[C@H]1C
inactive: DLD-1 > 100 µM | SNB-78 > 100 µM | XF498 > 100 µM | M19-MEL > 100 µM | DMS-273 > 100 µM | HOP-18 > 100 µM | KM-20L2 > 100 µM | DMS-114 > 100 µM

O=CC1=CCC2c3[nH]c4ccccc4c3CCN2C1 (stereo unspecified)
inactive: DLD-1 85.5 µM | XF498 72.3 µM | M19-MEL 71.8 µM | DMS-273 82.4 µM | HOP-18 > 396 µM | KM-20L2 135 µM | DMS-114 74.3 µM

Clc1ccc(CCn2cncn2)c(Cl)c1
inactive: DLD-1 > 100 µM | SNB-78 > 100 µM | M19-MEL > 100 µM | DMS-273 > 100 µM | HOP-18 44.6 µM | KM-20L2 > 100 µM | DMS-114 > 100 µM

COc1cc2cc3c4c(cc(OC)c(OC)c4c2cc1OC)CCN3
inactive: DLD-1 26.1 µM | SNB-78 > 100 µM | XF498 > 100 µM | M19-MEL 12.9 µM | DMS-273 33.7 µM | HOP-18 > 100 µM | KM-20L2 27.5 µM | DMS-114 36 µM

CN(C)C(=S)OC(Cn1cncn1)c1ccc(Cl)cc1Cl (stereo unspecified)
inactive: DLD-1 > 100 µM | M19-MEL > 100 µM | DMS-273 > 100 µM | HOP-18 > 100 µM | RXF 631 > 100 µM | KM-20L2 > 100 µM | DMS-114 > 100 µM

CC#CC(=O)Nc1ccccc1CC(c1c[nH]c2ccccc12)c1c[nH]c2ccccc12
inactive: DLD-1 16.6 µM | SNB-78 11.6 µM | M19-MEL 15.3 µM | DMS-273 16.2 µM | DMS-114 14.4 µM

O=C(O)C[C@@H](Cl)[C@H](NC(=O)OCc1ccccc1)C(=O)O
inactive: DLD-1 > 100 µM | SNB-78 > 100 µM | XF498 > 100 µM | M19-MEL > 100 µM | DMS-273 > 100 µM | HOP-18 > 100 µM | KM-20L2 > 100 µM | DMS-114 > 100 µM

COC(=O)C1CCC2(C)[C@H](CCC3O[C@]32C)[C@@]1(C)CC(=O)c1ccoc1 (stereo partly specified)
inactive: DLD-1 > 100 µM | SNB-78 > 100 µM | XF498 20.4 µM | M19-MEL > 100 µM | DMS-273 > 100 µM | KM-20L2 > 100 µM | DMS-114 46.1 µM

COC(=O)CC(C(C(C)=O)C(=O)OCc1ccccc1)N1C(=O)OCC1c1ccccc1 (stereo unspecified)
inactive: DLD-1 47.2 µM | XF498 53.5 µM | M19-MEL > 100 µM | DMS-273 > 100 µM | RXF 631 > 100 µM | KM-20L2 > 100 µM | DMS-114 52 µM

COc1ccc2cc3[n+](cc2c1OC)CCc1cc2c(cc1-3)OCO2 [BERBERINE CHLORIDE]
inactive: SNB-78 53.8 µM | XF498 7.82 µM | M19-MEL 5.56 µM | DMS-273 10.3 µM | HOP-18 106 µM | KM-20L2 28.2 µM | DMS-114 4.23 µM

C[C@@H](CN1CC(=O)NC(=O)C1)N1CC(=O)NC(=O)C1 [DEXRAZOXANE]
inactive: DLD-1 424 µM | SNB-78 435 µM | XF498 102 µM | M19-MEL 311 µM | DMS-273 218 µM | HOP-18 422 µM | KM-20L2 123 µM | DMS-114 70.5 µM
